Assay results: PMC3003779 (Chemistry & biology, 2010)
Like-named read-outs stand apart in the source and are kept apart here.

What was measured:
[1] = biological target: T1, human recombinant FAAH (Homo sapiens, UniProt O00519); test: biochemical; conditions: in vitro
T1 sequence (O00519 1-579): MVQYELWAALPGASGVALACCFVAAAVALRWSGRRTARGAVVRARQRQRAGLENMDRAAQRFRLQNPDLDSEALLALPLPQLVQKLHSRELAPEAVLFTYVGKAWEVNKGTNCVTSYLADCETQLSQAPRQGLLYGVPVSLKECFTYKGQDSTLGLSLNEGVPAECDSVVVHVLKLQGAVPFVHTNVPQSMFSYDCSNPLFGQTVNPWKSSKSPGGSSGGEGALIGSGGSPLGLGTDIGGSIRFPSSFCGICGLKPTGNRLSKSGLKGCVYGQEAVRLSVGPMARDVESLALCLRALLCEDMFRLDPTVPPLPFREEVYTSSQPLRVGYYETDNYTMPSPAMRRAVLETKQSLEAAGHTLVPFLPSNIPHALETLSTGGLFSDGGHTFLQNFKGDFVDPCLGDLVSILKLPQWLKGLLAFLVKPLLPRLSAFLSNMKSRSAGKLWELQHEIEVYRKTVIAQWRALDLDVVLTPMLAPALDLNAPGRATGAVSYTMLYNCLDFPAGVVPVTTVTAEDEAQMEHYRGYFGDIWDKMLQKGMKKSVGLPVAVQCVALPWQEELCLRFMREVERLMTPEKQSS

[2] = system: SHR and WKY rats; test: mean arterial pressure and heart rate in anesthetized rats; assay type: in vivo, rat; conditions: for hypotensive effect: 0.3 mg/kg
[3] = biological target: CB1 receptor (Rattus norvegicus, UniProt P20272); test: HU210-stimulated [35S]GTPγS binding in brain membranes; assay type: biochemical; conditions: brain membrane preparations, SHR vs WKY
CB1 receptor, sequence (P20272 whole entry): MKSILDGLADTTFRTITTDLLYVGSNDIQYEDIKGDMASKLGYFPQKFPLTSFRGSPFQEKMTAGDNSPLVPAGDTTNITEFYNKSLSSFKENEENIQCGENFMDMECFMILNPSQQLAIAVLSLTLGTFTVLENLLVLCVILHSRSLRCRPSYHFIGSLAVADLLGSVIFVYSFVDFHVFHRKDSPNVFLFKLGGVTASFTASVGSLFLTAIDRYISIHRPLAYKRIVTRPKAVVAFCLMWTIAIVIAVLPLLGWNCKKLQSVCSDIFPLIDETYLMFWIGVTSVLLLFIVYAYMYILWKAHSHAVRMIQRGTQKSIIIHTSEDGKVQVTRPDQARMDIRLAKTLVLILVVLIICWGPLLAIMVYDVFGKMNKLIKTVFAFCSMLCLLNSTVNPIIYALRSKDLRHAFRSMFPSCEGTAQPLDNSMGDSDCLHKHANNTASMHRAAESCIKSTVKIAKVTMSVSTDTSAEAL

[4] = system: anandamide levels in hepatocytes; test: anandamide levels in hepatocytes; assay type: cell-based, mouse; conditions: 100 nM, dense suspension 40 mg/mL
[5] = biological target: T2, FAAH (Mus musculus, UniProt O08914); test: in vivo; assay type: in vivo; conditions: mouse
T2 sequence (O08914 1-579): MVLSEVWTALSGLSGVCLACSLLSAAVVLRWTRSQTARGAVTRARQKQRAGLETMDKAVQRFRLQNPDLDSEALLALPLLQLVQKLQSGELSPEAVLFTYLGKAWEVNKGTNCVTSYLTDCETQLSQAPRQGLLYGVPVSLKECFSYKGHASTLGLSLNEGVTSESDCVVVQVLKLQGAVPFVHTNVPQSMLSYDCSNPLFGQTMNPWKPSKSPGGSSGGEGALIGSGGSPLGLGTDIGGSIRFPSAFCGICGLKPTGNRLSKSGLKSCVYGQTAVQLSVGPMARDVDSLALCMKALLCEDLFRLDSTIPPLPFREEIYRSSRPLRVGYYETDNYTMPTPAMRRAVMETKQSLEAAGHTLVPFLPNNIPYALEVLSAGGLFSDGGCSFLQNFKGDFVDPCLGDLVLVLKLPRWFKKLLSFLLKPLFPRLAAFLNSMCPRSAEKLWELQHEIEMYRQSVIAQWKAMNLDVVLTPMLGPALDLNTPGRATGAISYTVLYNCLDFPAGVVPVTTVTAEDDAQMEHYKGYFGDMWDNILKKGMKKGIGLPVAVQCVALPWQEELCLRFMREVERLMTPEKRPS

[6] = system: SHR and WKY rats; test: non-fasting blood glucose in rats; conditions: 10 mg/kg i.p.
[7] = biological target: T2, FAAH; test: FAAH activity in brain and liver homogenates, drug added in vitro; assay type: biochemical
[8] = system: Mouse hepatocytes; test: drug levels in hepatocyte suspensions by LC/MS/MS
[9] = system: mice with diet-induced obesity; test: intraperitoneal glucose tolerance test in mice on high-fat diet; assay type: in vivo, mouse
[10] = biological target: T2, FAAH; assay type: cell-based

**Q.** Which “potency against human recombinant FAAH relative to AM3506 and URB597” value [1] does the source give for O=S(=O)(F)Cc1ccccc1 [PMSF, phenyl methyl sulfonyl fluoride, reference compound] here?
**A.** The value was 3 orders of magnitude less potent.

**Q.** With Cc1c(C(=O)NN2CCCCC2)nn(-c2ccc(Cl)cc2Cl)c1-c1ccc(Cl)cc1 [rimonabant] as the compound, how does the “ΔHR, acute reversal of AM3506 effect” value ([2]; SHR, 3 mg/kg, after AM3506) read?
**A.** Its value is “+129±14 bpm”.

**Q.** And the “ΔMBP, acute reversal of AM3506 effect” value ([2]; SHR, 3 mg/kg, after AM3506)?
**A.** Its value is “+101±9 mmHg”.

**Q.** For Cc1c(C(=O)NN2CCCCC2)nn(-c2ccc(Cl)cc2Cl)c1-c1ccc(I)cc1 [AM251], which “effect on the effects of HU210” value ([2]; SHR and WKY) is on record?
**A.** The value was “abolished”.

**Q.** What about the “effect of pretreatment on the MAP and HR effects of AM3506” value ([2]; SHR, 3 mg/kg i.p. 60 min before 1 mg/kg AM3506 i.v.) of the same compound?
**A.** The value was “prevented”.

**Q.** And the “acute reversal of the fully developed effects of AM3506” value ([2]; SHR, 3 mg/kg i.v. at the peak hypotensive response to 1 mg/kg AM3506)?
**A.** Its value is “acutely reversed”.

**Q.** For CCCCCOc1ccc(C(=O)c2cccc3ccccc23)c2ccccc12 [CB13], which hypotensive effect ([2]; SHR) is on record?
**A.** The hypotensive effect was −40±6 mmHg.

**Q.** What about the hypotensive effect ([2]; WKY) of the same compound?
**A.** Its hypotensive effect is −36±10 mmHg.

**Q.** Which “hypotension, SHR compared with WKY” value ([2]; 1 μg/kg i.v., anaesthetized rats) does the source give for CCCCCCC(C)(C)c1cc(O)c2c(c1)OC(C)(C)[C@@H]1CC=C(CO)C[C@@H]21 [HU210] here?
**A.** The value was “much greater hypotension in SHR than in WKY”.

**Q.** And the “CB1 receptor coupling efficiency, HU210-stimulated GTPγS labeling” value [3]?
**A.** The value was “dramatically increased”.

**Q.** Which results are given for NC(=O)c1cccc(-c2cccc(OC(=O)NC3CCCCC3)c2)c1 [URB597, reference compound]?
**A.** anandamide levels in hepatocytes [4]: markedly increased; hypotensive/bradycardic potency, times less potent than AM3506 ([2]; anesthetized SHR): ~ 40 times; suppression of FAAH activity in brain ([5]; in vivo, po, 10 mg/kg): 86±2%; suppression of FAAH activity in liver ([5]; in vivo, po, 10 mg/kg): 83±0.5%; ED50 ([5]; read-out: ID50, inhibition of brain FAAH activity): 0.22 mg/kg; ED50 ([5]; read-out: ID50, inhibition of liver FAAH activity): 0.45 mg/kg; non-fasting blood glucose after treatment ([6]; SHR, from 104.0±7.4): 144.0 ± 9.6 mg/dL; non-fasting blood glucose after treatment ([6]; WKY, from 90.0±7.2): 135.3 ± 12.9 mg/dL; FAAH activity in tissue homogenates [7]: equally effective in blocking FAAH activity in brain and liver; recovery of drug from cell-free medium ([8]; 0 to 30 min, no hepatocytes): remained constant; drug level in cell pellets, dense hepatocyte suspension ([8]; 100 nM, 40 mg/mL): gradually declined over 10 min; drug level in medium, dense hepatocyte suspension ([8]; 100 nM, 40 mg/mL): rapidly depleted from the medium; free drug (parent ion) still present in cell-free supernatant ([8]; dilute hepatocyte suspension 1 mg/mL, 100 nM, 10 min, % of drug added at 0 min): 50–55%; ipGTT area under the curve (AUC) ([9]; liver-specific CB1 knockout (LCB1−/−) mice on HFD, vehicle 322±37): 337 ± 14 mg·h/dL; effect on glucose tolerance ([9]; liver-specific CB1−/− mice on HFD, 1.38 mg/kg): failed to affect glucose tolerance; effect on glucose tolerance ([9]; liver-specific CB1−/− mice on HFD, 10 mg/kg): remained ineffective; effect on glucose tolerance ([9]; male DIO mice, 1.38 mg/kg): marked increase in glucose intolerance; ipGTT area under the curve (AUC) ([9]; male DIO mice, 1.38 mg/kg i.p. 60 min before glucose, vehicle 352±28): 570 ± 45 mg·h/dL; effect on glucose tolerance ([9]; wild-type mice on HFD, 10 mg/kg, compared with the lower dose): same degree of glucose intolerance; FAAH activity in cell pellet, dilute hepatocyte suspension [10]: nearly completely blocked; FAAH activity in cells, dense hepatocyte suspension [10]: rapidly and nearly completely blocked
